# In patent publication US5955572A, “Structural mimics of RGD-binding sites” (La Jolla Cancer Research Foundation, priority 1998, dated 1999):
# Where a SMILES comes first, the peptide text is derived from it. Bridges are numbered along the chain shown (N, C = ends).
# Biological target: T1, β3 (109-133) peptide (Homo sapiens, UniProt P05106)
# T1 construct: made in house; host or cells: chemical synthesis
# T1 sequence (P05106 135-159 limits assumed): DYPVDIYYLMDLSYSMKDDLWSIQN
# Experiment: RGD-phage binding to peptides from the β3 integrin subunit
# Conditions: titration experiments (not shown); read-out: concentration giving 50% inhibition of RGD-binding to β3 (109-133)
structure (smiles),measurement,value
CC(C)C[C@@H]1NC(=O)[C@H](Cc2c[nH]c3ccccc23)NC(=O)CNC(=O)[C@H](CC(=O)O)NC(=O)[C@H](CC(=O)O)NC(=O)[C@H](Cc2c[nH]c3ccccc23)NC(=O)[C@@H](N)CSSC[C@@H](C(=O)O)NC1=O (H-CWDDGWLC-OH; disulfide 1-8),IC50,~1 µM
